Source: patent US8815857B2 (Boehringer Ingelheim International GmbH, priority 2011, dated 2014)
≈ marks a conversion by molar mass, not a printed value.

Columns and labels:
[1] = target: T1, Recombinant human soluble guanylate cyclase (sGC), alpha 1 / beta 1 subunits, heme-free (Homo sapiens, UniProt Q02108+Q02153); experiment: Molecular assay: cGMP formation by heme-free recombinant sGC (CisBio cGMP detection kit); type: biochemical; conditions: 300 pM heme-free sGC, 37° C., 60 min, cGMP readout; read-out: EC50 nM, Activity of Compounds in Molecular Assay
T1 construct: histidine tag (C); made in house; host or cells: Sf9 insect cells (baculovirus coinfection)
T1 sequence (Q02108 1-690 partner): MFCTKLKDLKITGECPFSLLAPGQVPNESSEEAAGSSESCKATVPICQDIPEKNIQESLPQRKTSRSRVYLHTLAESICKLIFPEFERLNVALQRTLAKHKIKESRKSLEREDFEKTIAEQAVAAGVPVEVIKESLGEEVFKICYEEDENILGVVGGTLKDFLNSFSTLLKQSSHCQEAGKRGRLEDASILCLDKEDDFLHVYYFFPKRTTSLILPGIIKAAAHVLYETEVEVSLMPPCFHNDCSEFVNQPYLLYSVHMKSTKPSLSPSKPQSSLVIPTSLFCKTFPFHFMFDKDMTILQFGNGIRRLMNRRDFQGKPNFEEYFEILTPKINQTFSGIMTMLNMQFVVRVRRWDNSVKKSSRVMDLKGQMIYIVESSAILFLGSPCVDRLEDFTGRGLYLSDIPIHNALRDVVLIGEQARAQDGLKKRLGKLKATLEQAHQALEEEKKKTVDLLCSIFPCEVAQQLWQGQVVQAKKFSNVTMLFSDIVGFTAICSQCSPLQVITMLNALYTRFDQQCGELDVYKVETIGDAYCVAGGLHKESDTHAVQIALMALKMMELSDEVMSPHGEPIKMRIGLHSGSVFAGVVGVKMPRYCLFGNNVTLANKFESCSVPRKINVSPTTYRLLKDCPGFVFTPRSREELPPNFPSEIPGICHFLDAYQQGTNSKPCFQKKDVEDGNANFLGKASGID
T1 sequence (Q02153 1-619): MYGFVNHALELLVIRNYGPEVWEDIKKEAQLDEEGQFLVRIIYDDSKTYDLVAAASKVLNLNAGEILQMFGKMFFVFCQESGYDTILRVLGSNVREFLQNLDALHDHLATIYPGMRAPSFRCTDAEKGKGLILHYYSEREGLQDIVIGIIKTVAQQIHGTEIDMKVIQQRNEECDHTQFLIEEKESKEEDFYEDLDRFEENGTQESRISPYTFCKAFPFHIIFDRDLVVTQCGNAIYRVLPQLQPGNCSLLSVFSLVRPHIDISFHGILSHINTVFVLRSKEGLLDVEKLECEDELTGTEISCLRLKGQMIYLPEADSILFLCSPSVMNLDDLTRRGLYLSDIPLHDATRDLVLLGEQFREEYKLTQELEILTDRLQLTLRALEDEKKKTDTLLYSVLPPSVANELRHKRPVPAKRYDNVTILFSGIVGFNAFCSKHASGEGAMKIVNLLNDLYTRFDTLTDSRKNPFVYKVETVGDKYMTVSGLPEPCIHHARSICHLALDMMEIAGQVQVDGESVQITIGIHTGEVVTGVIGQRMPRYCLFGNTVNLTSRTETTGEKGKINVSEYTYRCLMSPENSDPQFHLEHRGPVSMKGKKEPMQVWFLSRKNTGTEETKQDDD
Method in brief: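 cGMP generated over 60 min at 37° C (pH 6.8 MOPS buffer, 50 nM GTP, 1.25 mM IBMX, 1% DMSO) by 300 pM heme-free sGC, expressed in Sf9 and heme-stripped with 0.5% Tween 20. HTRF ratios converted to nM cGMP; EC50 fitted from log concentration.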

[2] = Assessment of solubility: HT solubility in pION buffer, UV spectrophotometry; conditions: pION system solution buffer, kinetic from dmso stock, 16-19 h incubation, 1.0% DMSO
[3] = pH 4.5, pH 4.5, aqueous buffer, Solubility (pH 4.5), pH 4.5 buffer
[4] = pH 7.4, pH 7.4, aqueous buffer, Solubility (pH 7.4), pH 7.4 buffer

Compound	EC50 [1] [nM]	solubility [2, 3] [µg/mL]	solubility [2, 4] [µg/mL]
Cc1cc(CN2CCOCC2)ccc1COc1ccc(Cl)cc1-c1csc(N2CCC(C(=O)O)C(C)C2)n1 (stereo not drawn) [Compound 83]	210	11 (≈ 19.8 µM)	25 (≈ 45 µM)
Cc1cc(CN2CCOCC2)ccc1COc1ccc(Cl)cc1-c1csc(N2CCC(C(=O)O)CC2C)n1 (stereo not drawn) [Compound 84]	180	14 (≈ 25.2 µM)	21 (≈ 37.8 µM)
Cc1cc(C(=O)N2CCCCC2)ccc1COc1ccc(C#N)cc1-c1csc(N2CCC(C(=O)O)CC2C)n1 (stereo not drawn) [Compound 85]	1100	0.35 (≈ 0.626 µM)	> 55
Cc1cc(CN2CCOCC2)ccc1COc1ccc(C#N)cc1-c1csc(N2CC3CCC(C2)C3C(=O)O)n1 (stereo not drawn) [Compound 86]	7100	3.5 (≈ 6.26 µM)	5.7 (≈ 10.2 µM)
Cc1cc(CN2CCOCC2)ccc1COc1ccc(C#N)cc1-c1csc(N2C3CCC2CC(C(=O)O)C3)n1 (stereo not drawn) [Compound 87]	800	> 63	> 63
Cc1ccc(OCc2ccc(C(=O)N3CCCCC3)cc2C)c(-c2csc(N3C4CCC3CC(C(=O)O)C4)n2)c1 (stereo not drawn) [Compound 88]	15	0.45 (≈ 0.804 µM)	> 55
Cc1ccc(OCc2ccc(C(=O)N3CCCCC3)cc2C)c(-c2csc(N3CC4CCC(C3)C4C(=O)O)n2)c1 (stereo not drawn) [Compound 89, 3-(4-{5-methyl-2-[2-methyl-4-(piperidine-1-carbonyl)-benzyloxy]-phenyl}-thiazol-2-yl)-3-aza-bicyclo[3.2.1]octane-8-carboxylic acid]	2.5	0.35 (≈ 0.625 µM)	32 (≈ 57.2 µM)
Cc1ccc(OCc2ccc(C(=O)N3CCC(O)CC3)cc2C#N)c(-c2csc(N3CCC(C(=O)O)CC3)n2)c1 [Compound 90]	150	35 (≈ 62.4 µM)	> 56
Cc1ccc(OCc2ccc(CN(C)CC3CCCCC3)cc2C)c(-c2csc(N3CCC(C(=O)O)CC3)n2)c1 [Compound 91]	730	31 (≈ 55.2 µM)	12 (≈ 21.4 µM)
COCCCN(C)C(=O)c1ccc(COc2ccc(C)cc2-c2csc(N3CCC(C(=O)O)CC3)n2)c(C#N)c1 [Compound 92]	78	20 (≈ 35.5 µM)	12 (≈ 21.3 µM)
Cc1cc(CN2CCCC(C(N)=O)C2)ccc1COc1c(C)cccc1-c1csc(N2CCC(C(=O)O)CC2)n1 (stereo not drawn) [Compound 94]	770	> 56	> 56
CC(=O)N1CCN(Cc2ccc(COc3c(C)cccc3-c3csc(N4CCC(C(=O)O)CC4)n3)c(C)c2)CC1 [Compound 95]	35	> 56	> 56
Cc1ccc(OCc2ccc(CN(C)CC3CCOCC3)cc2C)c(-c2csc(N3CCC(C(=O)O)CC3)n2)c1 [Compound 96]	550	> 67	> 67
Cc1cc(C(=O)N2CCCCC2)ccc1COc1ccc(F)cc1-c1csc(N2C3CCC2CC(C(=O)O)C3)n1 (stereo not drawn) [Compound 97]	59	0.45 (≈ 0.798 µM)	> 56
Cc1cc(C(=O)N2CCCCC2)ccc1COc1ccc(F)cc1-c1csc(N2CC3CCC(C2)C3C(=O)O)n1 (stereo not drawn) [Compound 98]	780	0.2 (≈ 0.355 µM)	> 56
Cc1cc(CN2CCOCC2)ccc1COc1ccc(Cl)cc1-c1csc(N2CC3CCC(C2)C3C(=O)O)n1 (stereo not drawn) [Compound 99]	690	4.7 (≈ 8.27 µM)	13 (≈ 22.9 µM)
Cc1cc(CN2CCOCC2)ccc1COc1ccc(Cl)cc1-c1csc(N2C3CCC2CC(C(=O)O)C3)n1 (stereo not drawn) [Compound 100]	440	20 (≈ 35.2 µM)	27 (≈ 47.5 µM)
Cc1ccc(OCc2ccc(CN3CCS(=O)(=O)CC3)cc2C)c(-c2csc(N3CC4C(C3)C4C(=O)O)n2)c1 (stereo not drawn) [Compound 101]	1700	3 (≈ 5.28 µM)	> 56
